# Test results as given in patent US20220071932A1, “Compositions and Methods Against Stress-Induced Affective Disorders and Their Associated Symptoms” (The Trustees of Columbia University in the City of New York, priority 2019, published 2022).
# Key:
# NMDARs = settings: ex vivo autoradiography and immunohistochemical staining; cited from earlier work
# c-fos = c-fos immunohistochemistry in hippocampus after CFC re-exposure; assay type: in vivo, mice; settings: one week prior to CFC, sacrificed one hour after re-exposure; (R,S)-ketamine 30 mg/kg, FENM 20 mg/kg; vs saline
# Procedure: Immunohistochemistry was performed as previously described (46). Mice were deeply anesthetized, and brains were fixed and extracted using transcardial perfusion. For c-fos immunohistochemistry, floating sections were used. Sections were first rinsed three times in 1×PBS and then blocked in 1×PBS with 0.5% Triton X-100 and 10% NDS for 2 hours at room temperature (RT). Incubation with primary antibodies was performed at 4° C. overnight (rabbit anti-c-fos, 1:5000, SySy, Göettingen, Germany, 226 003) in 1×PBS with 0.5% Triton X-100. Sections were then washed three times in 1×PBS and incubated with secondary antibody (Alexa 647 anti-rabbit, 1:500, Thermo Fisher Scientific, Waltham, Mass. A32733) for 2 hours at RT. Sections were then washed three times in 1×PBS, mounted on slides, and coverslipped with ProLong Gold (Invitrogen, Carlsbad, Calif.).
# Fluorescent confocal micrographs were captured with a Leica TCS SPE-II confocal microscope with LAS X software. Bilateral hippocampal sections were imaged throughout the rostro-caudal axis of the HPC using a 20× objective. Identification of hippocampal regions involved acquiring 6 dorsal and ventral sections per mouse brain slice at 20×. […]
# An investigator blind to treatment groups used FIJI software to count c-fos^+ immunoreactive cells in the DG, CA3, and CA1 throughout the entire rostrocaudal axis of the HPC. Cells were counted bilaterally. […]
# 129S6/SvEv mice = assay: Novelty suppressed feeding (NSF); assay type: in vivo; settings: for Novelty Suppressed Feeding, Latency to feed in OF (sec), p (Fisher's LSD): FIG. 8P
# Procedure: Testing was performed as previously described (47). Briefly, the NSF testing apparatus consisted of a plastic box (50×50×20 cm). The floor of which was covered with approximately 2 cm of wooden bedding and the arena was brightly lit (approximately 1000 lux). Mice were food restricted for 24 h prior to testing. At the time of testing, a single pellet of food (regular chow) was placed on a white paper platform positioned in the center of the box. Each animal was placed in a corner of the box, and a stopwatch was immediately started. The latency of the mice to begin eating in the arena was recorded Immediately after the latency was recorded, the food pellet was removed from the arena. The mice were then placed back into their home cage. The latency to eat and the amount of food consumed in 5 min were measured (home cage consumption), followed by an assessment of post-restriction weight. A Kaplan-Meier survival analysis was used due to the lack of normal distribution of data. The Mantel-Cox log-rank test was used to evaluate differences between the experimental groups.
# [1] = tested on: depressive symptoms in patients; settings: subanesthetic dose; patients; cited from earlier work
# NMDAR = settings: relative to (R,S)-ketamine; cited from earlier work
# [2] = 1 week prior to CFC, (R,S)-ketamine 30 mg/kg, FENM 10, 20 or 30 mg/kg, vs saline
# [3] = 5 min after context re-exposure 1, (R,S)-ketamine 30 mg/kg, FENM 20 mg/kg, vs saline
# [4] = 5 min prior to CFC, (R,S)-ketamine 30 mg/kg, FENM 20 mg/kg, vs saline
# [5] = 5 minutes after CFC, re-exposure 1 day after training, (R,S)-ketamine 30 mg/kg, FENM 20 mg/kg, vs saline
# [6] = 5 minutes after CFC, re-exposure 5 days after training, (R,S)-ketamine 30 mg/kg, FENM 10, 20 or 30 mg/kg, vs saline
# [7] = 5 minutes prior to re-exposure 1, (R,S)-ketamine 30 mg/kg, FENM 20 mg/kg, vs saline
# [8] = non-stressed mice, FENM 20 mg/kg 1 hour before the start of the OF, vs saline
smiles,measurement,setting,value
"CNC1(c2ccccc2Cl)CCCCC1=O (racemic) [(R,S)-ketamine, reference compound]","[18F]-FENM colocalization with NMDARs when (R,S)-ketamine was administered",NMDARs,colocalization with NMDARs was lost
same,c-fos expression in the ventral CA3 of the hippocampus,c-fos,significantly increased c-fos expression
same,latency to feed in the open arena (NSF),129S6/SvEv mice; [2],did not alter
same,latency to eat in the NSF arena,129S6/SvEv mice; [3],did not alter
same,latency to eat in the homecage (NSF),129S6/SvEv mice; [3],did not alter
same,latency to feed in the open arena (NSF),129S6/SvEv mice; [4],increased the latency to feed
same,latency to feed in the home cage (NSF),129S6/SvEv mice; [5],did not alter
same,latency to feed in the open arena (NSF),129S6/SvEv mice; [5],did not alter
same,latency to feed in the open arena (NSF),129S6/SvEv mice; [6],did not alter
same,latency to eat in the NSF arena,129S6/SvEv mice; [7],did not alter
same,latency to eat in the homecage (NSF),129S6/SvEv mice; [7],did not alter
same,"Novelty Suppressed Feeding, Latency to feed in OF (sec), p (Fisher's LSD)","129S6/SvEv mice; Saline vs. (R,S)-ketamine (30 mg/kg)",0.0575
same,duration of relief of depressive symptoms,[1],up to 3 weeks
same,time to relief of depressive symptoms after administration,[1],2 h
"NC12CC3CC(C1)CC(CCF)(C3)C2 [FENM, 1-amino-3-fluoroethyl-adamantane]",affinity as NMDAR antagonist,NMDAR,"lower affinity than (R,S)-ketamine"
same,latency to feed in the open arena (NSF),129S6/SvEv mice; [2],did not alter
same,latency to eat in the NSF arena,129S6/SvEv mice; [3],did not alter
same,latency to eat in the homecage (NSF),129S6/SvEv mice; [3],did not alter
same,latency to feed in the open arena (NSF),129S6/SvEv mice; [4],"but not FENM, increased"
same,latency to feed in the home cage (NSF),129S6/SvEv mice; [5],did not alter
same,latency to feed in the open arena (NSF),129S6/SvEv mice; [5],did not alter
same,latency to feed in the open arena (NSF),129S6/SvEv mice; [6],did not alter
same,latency to eat in the NSF arena,129S6/SvEv mice; [7],did not alter
same,latency to eat in the homecage (NSF),129S6/SvEv mice; [7],did not alter
same,"Novelty Suppressed Feeding, Latency to feed in OF (sec), p (Fisher's LSD)","129S6/SvEv mice; (R,S)-ketamine (30 mg/kg) vs. FENM (20 mg/kg)",0.0130
same,Behavior: Hypophagia,"129S6/SvEv mice; Baseline Anxiolytic, dose 20 mg/kg",↓
same,"p, Fraction of mice not eating in OF, NSF, Saline vs. FENM","129S6/SvEv mice; Log-rank (Mantel-Cox) test, Baseline, anxiety cohort, FENM 20 mg/kg, FIG. 7J",0.0210
same,"p, Fraction of mice not eating in HC, NSF, Saline vs. FENM","129S6/SvEv mice; Log-rank (Mantel-Cox) test, Baseline, anxiety cohort, FENM 20 mg/kg, FIG. 7K",0.7953
same,"Novelty Suppressed Feeding, Latency to feed in OF (sec), p (Fisher's LSD)",129S6/SvEv mice; Saline vs. FENM (20 mg/kg),0.4585
same,latency to approach the pellet in the NSF arena,129S6/SvEv mice; [8],significantly decreased
same,latency to eat in the homecage (NSF),129S6/SvEv mice; [8],did not alter
same,"p, Change in Weight (g), NSF, Saline vs. FENM","129S6/SvEv mice; t-test, Baseline, anxiety cohort, FENM 20 mg/kg, FIG. 7L",0.1661
same,"p, Food Eaten (g), NSF, Saline vs. FENM","129S6/SvEv mice; t-test, Baseline, anxiety cohort, FENM 20 mg/kg, FIG. 7M",0.0801
